Experimental findings from article PMC7830743 (Journal of medicinal chemistry, 2020) are described below.

Some results are limits rather than exact numbers.

Series [1] deals with A673 cells. Briefly: Cytotoxicity assay in A673 cells. Particulars: for IC50: Homo sapiens, A673, 48 h, read-out: A673 cells Cytotox. IC50. Type of series: cell-based, human.
Series [2] relates to A673 cells. Briefly: Cellular lactate production assay in A673 cells. Type of series: cell-based, human. Particulars: for IC50: Homo sapiens, A673, 0.5 h, read-out: A673 cells lactate inh. IC50.
Series [3] has as its system MiaPaCa-2 cells. Kind of series: Cellular lactate production assay in MiaPaCa-2 cells. Format: cell-based. Particulars: Homo sapiens, MIA PaCa-2, 0.5 h, read-out: MiaPaCa-2 cells lactate inh. IC50.
The target in the next series is LDHA (Homo sapiens, UniProt P00338). Briefly: Biochemical LDHA inhibition assay.
Series [4] deals with LDHA with C-terminal HiBiT fusion tag (Homo sapiens, UniProt P00338). Kind of series: SplitLuc CETSA. Format: cell-based.
Series [5] has as its system MiaPaCa-2 cells. Briefly: Cytotoxicity assay in MiaPaCa-2 cells. Particulars: Homo sapiens, MIA PaCa-2, 48 h, read-out: MiaPaCa-2 cells Cytotox. IC50. Type of series: cell-based.
The nature of series [6]: Mouse pharmacokinetic studies. Type of series: in vivo, CD1 mice. Particulars: male, CD1, mouse, plasma, iv, 10 mg/kg.
Series [7] relates to tumor LDH activity (A673 flank xenograft). Briefly: In vivo LDHA activity in A673 xenograft tumor mouse model. Particulars: single IV 50 mg/kg, A673 xenograft mice.
[8] abbreviates: both cell lines (A673 and MiaPaCa-2).

Turning to `C#Cc1cc(-c2nn(-c3nc(C(=O)O)cs3)c(CC3CC3)c2Cc2ccc(S(N)(=O)=O)c(F)c2)ccc1F` [Compound 11, 2-(5-(Cyclopropylmethyl)-3-(3-ethynyl-4-fluorophenyl)-4-(3-fluoro-4-sulfamoylbenzyl)-1H-pyrazol-1-yl)thiazole-4-carboxylic Acid], the “loss in potency in cytotoxicity relative to 10” value in the series on A673 cells [1] (setting [8]) is recorded as less than 3 fold. Also, in the series on A673 cells [2] (setting [8]), the “loss in potency toward lactate output relative to 10” value is less than 2 fold.

Regarding `NS(=O)(=O)c1ccc(Cc2c(-c3ccc(F)c(C#CC4(F)CCCC4)c3)nn(-c3nc(C(=O)O)cs3)c2CC2CC2)cc1F` [Compound 24, 2-(5-(Cyclopropylmethyl)-3-(4-fluoro-3-((1-fluorocyclopentyl)-ethynyl)phenyl)-4-(3-fluoro-4-sulfamoylbenzyl)-1H-pyrazol-1-yl)-thiazole-4-carboxylic Acid], the IC50 (usually the midpoint of a concentration-inhibition curve) with MiaPaCa-2 cells [3] amounted to 0.454 µM; at LDHA it was 0.033 µM; in the series on A673 cells [1], 0.689 µM; in series [4], 0.095 µM; in the series with A673 cells [2], 0.45 µM; in the series with MiaPaCa-2 cells [5] it was 0.593 µM.

`NS(=O)(=O)c1ccc(Cc2c(-c3ccc(F)c(C#CC4(O)CCCC4)c3)nn(-c3nc(C(=O)O)cs3)c2CC2CC2)cc1F` [Compound 25, 2-(5-(Cyclopropylmethyl)-3-(4-fluoro-3-((1-hydroxycyclopentyl)-ethynyl)phenyl)-4-(3-fluoro-4-sulfamoylbenzyl)-1H-pyrazol-1-yl)-thiazole-4-carboxylic Acid]: the IC50 was 1.48 µM with MiaPaCa-2 cells [3]; 0.007 µM against LDHA; 2.19 µM in the series on A673 cells [1]; 0.15 µM in series [4]; 1.93 µM in the series with A673 cells [2]; 2.18 µM in the series with MiaPaCa-2 cells [5].

Regarding `Cc1ccc(C#Cc2cc(-c3nn(-c4nc(C(=O)O)cs4)c(CC4CC4)c3Cc3ccc(S(N)(=O)=O)c(F)c3)ccc2F)o1` [Compound 44, 2-(5-(Cyclopropylmethyl)-3-(4-fluoro-3-((5-methylfuran-2-yl)-ethynyl)phenyl)-4-(3-fluoro-4-sulfamoylbenzyl)-1H-pyrazol-1-yl)-thiazole-4-carboxylic Acid], the clearance – broadly, the volume of plasma or blood freed of the substance per unit of time – at 24 h in series [6] was 75 mL/min/kg.

On to `Cc1ncc(C#Cc2cc(-c3nn(-c4nc(C(=O)O)cs4)c(CC4CC4)c3Cc3ccc(S(N)(=O)=O)c(F)c3)ccc2F)s1` [Compound 46, 2-(5-(Cyclopropylmethyl)-3-(4-fluoro-3-((2-methylthiazol-5-yl)-ethynyl)phenyl)-4-(3-fluoro-4-sulfamoylbenzyl)-1H-pyrazol-1-yl)-thiazole-4-carboxylic Acid], for which the clearance at 24 h in series [6] is 97 mL/min/kg.

Take `NS(=O)(=O)c1ccc(Cc2c(-c3cccc(C#Cc4ccc(C5CC5)s4)c3)nn(-c3nc(C(=O)O)cs3)c2CC2CC2)cc1F` [Compound 56, 2-(5-(Cyclopropylmethyl)-3-(3-((5-cyclopropylthiophen-2-yl)-ethynyl)phenyl)-4-(3-fluoro-4-sulfamoylbenzyl)-1H-pyrazol-1-yl)-thiazole-4-carboxylic Acid]: in series [7], the “effect on LDH activity in tumors (in words)” value (“effect on LDH activity” below) is reported as “moderate inhibition”. In series [7] (6 h), the “inhibition of tumor LDH activity at 6 h postdose” value is given as “failed to maintain significant inhibition”.

In series [6], `Cc1ccc(C#Cc2cccc(-c3nn(-c4nc(C(=O)O)cs4)c(CC4CC4)c3Cc3ccc(S(N)(=O)=O)c(F)c3)c2)o1` [Compound 61, 2-(5-(Cyclopropylmethyl)-4-(3-fluoro-4-sulfamoylbenzyl)-3-(3-((5-methylfuran-2-yl)ethynyl)phenyl)-1H-pyrazol-1-yl)thiazole-4-carboxylic Acid] gave a clearance at 24 h of 72.3 mL/min/kg.

With `NS(=O)(=O)c1ccc(Cc2c(-c3ccc(F)c(/C=C/C4CCCC4)c3)nn(-c3nc(C(=O)O)cs3)c2CC2CC2)cc1F` [Compound 69, (E)-2-(3-(3-(2-Cyclopentylvinyl)-4-fluorophenyl)-5-(cyclopropylmethyl)-4-(3-fluoro-4-sulfamoylbenzyl)-1H-pyrazol-1-yl)thiazole-4-carboxylic Acid], in series [6], the clearance at 24 h turned out to be 74.7 mL/min/kg. For the same molecule, the “effect on LDH activity” value in series [7] was “less effects”.

For `C/C=C/c1cc(-c2nn(-c3nc(C(=O)O)cs3)c(CC3CC3)c2Cc2ccc(S(N)(=O)=O)c(F)c2)ccc1F` [Compound 71, (E)-2-(5-(Cyclopropylmethyl)-3-(4-fluoro-3-(prop-1-en-1-yl)phenyl)-4-(3-fluoro-4-sulfamoylbenzyl)-1H-pyrazol-1-yl)thiazole-4carboxylic Acid], the “effect on LDH activity” value in series [7] was “less effects”.

Regarding `C=C(c1cc(-c2nn(-c3nc(C(=O)O)cs3)c(CC3CC3)c2Cc2ccc(S(N)(=O)=O)c(F)c2)ccc1F)C(F)(F)F` [Compound 73, 2-(5-(Cyclopropylmethyl)-3-(4-fluoro-3-(3,3,3-trifluoroprop-1-en-2-yl)phenyl)-4-(3-fluoro-4-sulfamoylbenzyl)-1H-pyrazol-1-yl)-thiazole-4-carboxylic Acid], the concentration for half-maximal inhibition (IC50) worked out at 0.972 µM with MiaPaCa-2 cells [3]; 0.039 µM against LDHA; 16 µM in the series on A673 cells [1]; 0.398 µM in series [4]; 0.713 µM in the series on A673 cells [2].

With `Cc1ccc(C#Cc2cc(-c3nn(-c4nc(C(=O)O)cs4)c(CCC4CC4)c3Cc3ccc(S(N)(=O)=O)c(F)c3)ccc2F)s1` [Compound 74, 2-(5-(2-Cyclopropylethyl)-3-(4-fluoro-3-((5-methylthiophen-2yl)ethynyl)phenyl)-4-(3-fluoro-4-sulfamoylbenzyl)-1H-pyrazol-1-yl)thiazole-4-carboxylic Acid], in series [6], the exposure AUC(0-t) (in general, exposure summed from dosing to a finite time, without extrapolation to infinity) amounted to 6650 ng·h/mL and the clearance stood at 74.7 mL/min/kg. In addition, in series [7], the “effect on LDH activity” value is on record as “moderate inhibition”.

Molecule `Cc1ccc(C#Cc2cccc(-c3nn(-c4nc(C(=O)O)cs4)c(CCC4CC4)c3Cc3ccc(S(N)(=O)=O)c(F)c3)c2)s1` [Compound 75, 2-(5-(2-Cyclopropylethyl)-4-(3-fluoro-4-sulfamoylbenzyl)-3-(3-((5-methylthiophen-2-yl)ethynyl)phenyl)-1H-pyrazol-1-yl)thiazole-4-carboxylic Acid] showed a clearance at 24 h in series [6] of 18.6 mL/min/kg.

With `Cc1cc(C#Cc2cccc(-c3nn(-c4nc(C(=O)O)cs4)c(CCC4CC4)c3Cc3ccc(S(N)(=O)=O)c(F)c3)c2)cs1` [Compound 77, 2-(5-(2-Cyclopropylethyl)-4-(3-fluoro-4-sulfamoylbenzyl)-3-(3-((5-methylthiophen-3-yl)ethynyl)phenyl)-1H-pyrazol-1-yl)thiazole-4-carboxylic Acid], the IC50 in the series on MiaPaCa-2 cells [3] came to 0.254 µM; against LDHA, 0.16 µM; in the series with A673 cells [1] it was 0.197 µM; in series [4] it was 0.142 µM; with A673 cells [2] it was 0.434 µM.

As for `Cc1ccc(C#Cc2cccc(-c3nn(-c4nc(C(=O)O)cs4)c(C(C)C4CC4)c3Cc3ccc(S(N)(=O)=O)c(F)c3)c2)s1` (stereo not shown) [Compound 84, 2-(5-(1-Cyclopropylethyl)-4-(3-fluoro-4-sulfamoylbenzyl)-3-(3-((5-methylthiophen-2-yl)ethynyl)phenyl)-1H-pyrazol-1-yl)thiazole-4-carboxylic Acid], the IC50 in the series on MiaPaCa-2 cells [3] turned out to be 1.03 µM; at LDHA it was 0.874 µM; in the series with A673 cells [1], 0.968 µM; in series [4], 0.708 µM; with A673 cells [2], 0.685 µM.

As for `Cc1ccc(C#Cc2cccc(-c3nn(-c4nc(C(=O)O)cs4)c(C(C)(C)C4CC4)c3Cc3ccc(S(N)(=O)=O)c(F)c3)c2)s1` [Compound 85, 2-(5-(2-Cyclopropylpropan-2-yl)-4-(3-fluoro-4-sulfamoylbenzyl)-3-(3-((5-methylthiophen-2-yl)ethynyl)phenyl)-1H-pyrazol-1-yl)-thiazole-4-carboxylic Acid], the IC50 in the series with MiaPaCa-2 cells [3] turned out to be 5.14 µM; against LDHA it was 4.54 µM; in the series with A673 cells [1] it was 5.9 µM; in series [4], 10.8 µM; with A673 cells [2], 18.3 µM.

For the molecule `Cc1ccc(C#Cc2cccc(-c3nn(-c4nc(C(=O)O)cs4)c(CC4(C)CC4)c3Cc3ccc(S(N)(=O)=O)c(F)c3)c2)s1` [Compound 86, 2-(4-(3-Fluoro-4-sulfamoylbenzyl)-5-((1-methylcyclopropyl)-methyl)-3-(3-((5-methylthiophen-2-yl)ethynyl)phenyl)-1H-pyrazol-1-yl)thiazole-4-carboxylic Acid], the half-maximal inhibitory concentration (IC50) with MiaPaCa-2 cells [3] stood at 0.409 µM; against LDHA, 0.307 µM; in the series with A673 cells [1], 0.59 µM; in series [4], 0.251 µM; in the series with A673 cells [2], 0.346 µM.

Take `Cc1ccc(C#Cc2cccc(-c3nn(-c4nc(C(=O)O)cs4)c(C4CC4C4CC4)c3Cc3ccc(S(N)(=O)=O)c(F)c3)c2)s1` (stereo not shown) [Compound 88, 2-(5-([1,1′-Bi(cyclopropan)]-2-yl)-4-(3-fluoro-4-sulfamoylbenzyl)-3-(3-((5-methylthiophen-2-yl)ethynyl)phenyl)-1H-pyrazol-1-yl)thiazole-4-carboxylic Acid]: the half-maximal inhibitory concentration (IC50) is 0.515 µM with MiaPaCa-2 cells [3]; 1.17 µM against LDHA; 4.69 µM in the series on A673 cells [1]; 1.03 µM in series [4]; 0.364 µM with A673 cells [2].

For the molecule `Cc1ccc(C#Cc2cccc(-c3nn(-c4nc(C(=O)O)cs4)c(C(C4CC4)C4CC4)c3Cc3ccc(S(N)(=O)=O)c(F)c3)c2)s1` [Compound 89, 2-(5-(Dicyclopropylmethyl)-4-(3-fluoro-4-sulfamoylbenzyl)-3-(3-((5-methylthiophen-2-yl)ethynyl)phenyl)-1H-pyrazol-1-yl)thiazole-4-carboxylic Acid], the IC50 with MiaPaCa-2 cells [3] was 1.22 µM; against LDHA it was 5.27 µM; in the series on A673 cells [1], 26.4 µM; in series [4], 3.18 µM; with A673 cells [2], 1.86 µM.
